Drawing on patent US10392404B2, “Compounds and compositions as kinase inhibitors” (NOVARTIS AG, priority 2014, dated 2019), this text covers IC50 for 26 molecules.

The structures appear in SMILES notation.

One test concerns the target T1, b-Raf (V600E) (Homo sapiens, UniProt P15056, V600E).
T1 construct: made in house
The test is described as follows: In vitro Raf activity determination (Alpha Screen, biotinylated kinase-dead MEK1 substrate), B-Raf. It is filed as biochemical. The following applies: b-Raf (V600E) approximately 4 pM; ATP 10 μM; pre-incubation 60 minutes; reaction 3 hours at room temperature. A digest of the protocol: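 Activated b-Raf(V600E) (~4 pM) pre-incubated 60 min with compound and biotinylated kinase-dead (K97R) MEK1 (~10 nM), then reacted 3 h at room temperature with 10 μM ATP in 50 mM Tris pH 7.5, 15 mM MgCl2, 0.01% BSA, 1 mM DTT. Phospho-MEK detected by AlphaScreen; IC50 by non-linear regression.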

For another test, the target named is T2, C-RAF (Homo sapiens, UniProt P04049, Y340E/Y341E).
T2 construct: His tag (implied by nickel chromatography) (cleaved yes); StrepII tag (cleaved yes); made in house; host or cells: Sf9 insect cells (baculovirus), CRAF and h14-3-3 zeta co-expressed; MEK1 substrate from E. coli
T2 sequence (P04049 whole entry Y340E/Y341E): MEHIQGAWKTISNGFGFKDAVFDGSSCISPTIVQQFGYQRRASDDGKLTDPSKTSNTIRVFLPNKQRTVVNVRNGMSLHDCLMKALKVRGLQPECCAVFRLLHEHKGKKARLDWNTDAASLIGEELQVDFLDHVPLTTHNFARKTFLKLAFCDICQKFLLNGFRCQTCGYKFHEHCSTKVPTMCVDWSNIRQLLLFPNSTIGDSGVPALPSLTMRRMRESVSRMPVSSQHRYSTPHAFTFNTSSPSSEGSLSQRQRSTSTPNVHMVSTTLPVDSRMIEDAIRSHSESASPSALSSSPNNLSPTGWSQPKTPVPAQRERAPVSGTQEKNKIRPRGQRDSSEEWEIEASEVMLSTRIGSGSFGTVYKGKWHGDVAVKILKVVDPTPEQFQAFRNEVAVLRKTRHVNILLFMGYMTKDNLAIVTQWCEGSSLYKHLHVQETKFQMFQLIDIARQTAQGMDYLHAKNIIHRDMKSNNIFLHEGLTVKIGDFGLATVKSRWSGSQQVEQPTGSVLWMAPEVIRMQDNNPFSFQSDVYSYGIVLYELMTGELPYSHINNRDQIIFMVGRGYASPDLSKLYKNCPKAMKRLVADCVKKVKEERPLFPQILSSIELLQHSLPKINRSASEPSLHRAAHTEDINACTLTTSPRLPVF
T2 sequence (P63104 whole entry partner): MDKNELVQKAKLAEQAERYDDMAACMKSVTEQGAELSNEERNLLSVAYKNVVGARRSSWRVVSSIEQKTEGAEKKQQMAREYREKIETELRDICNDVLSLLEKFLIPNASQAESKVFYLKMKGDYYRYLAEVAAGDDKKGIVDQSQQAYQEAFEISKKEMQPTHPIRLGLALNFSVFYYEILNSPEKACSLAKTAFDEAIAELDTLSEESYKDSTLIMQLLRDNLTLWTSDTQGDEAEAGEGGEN
As to the kind of experiment: In vitro Raf activity determination (Alpha Screen, biotinylated kinase-dead MEK1 substrate), C-Raf. It is filed as biochemical. The note with it: c-Raf approximately 4 nM; ATP 1 μM; pre-incubation 60 minutes; reaction 1 hour at room temperature. A digest of the protocol:
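Full-length C-Raf carrying Y340E/Y341E, co-expressed with 14-3-3ζ in Sf9 cells, at approximately 4 nM, with approximately 10 nM biotinylated kinase-dead MEK1 (K97R) and 1 μM ATP, pH 7.5. Compound preincubated 60 min, reaction 1 hour at room temperature. Phospho-MEK read by AlphaScreen; IC50 by non-linear regression.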

T1 sequence (P15056 whole entry V600E): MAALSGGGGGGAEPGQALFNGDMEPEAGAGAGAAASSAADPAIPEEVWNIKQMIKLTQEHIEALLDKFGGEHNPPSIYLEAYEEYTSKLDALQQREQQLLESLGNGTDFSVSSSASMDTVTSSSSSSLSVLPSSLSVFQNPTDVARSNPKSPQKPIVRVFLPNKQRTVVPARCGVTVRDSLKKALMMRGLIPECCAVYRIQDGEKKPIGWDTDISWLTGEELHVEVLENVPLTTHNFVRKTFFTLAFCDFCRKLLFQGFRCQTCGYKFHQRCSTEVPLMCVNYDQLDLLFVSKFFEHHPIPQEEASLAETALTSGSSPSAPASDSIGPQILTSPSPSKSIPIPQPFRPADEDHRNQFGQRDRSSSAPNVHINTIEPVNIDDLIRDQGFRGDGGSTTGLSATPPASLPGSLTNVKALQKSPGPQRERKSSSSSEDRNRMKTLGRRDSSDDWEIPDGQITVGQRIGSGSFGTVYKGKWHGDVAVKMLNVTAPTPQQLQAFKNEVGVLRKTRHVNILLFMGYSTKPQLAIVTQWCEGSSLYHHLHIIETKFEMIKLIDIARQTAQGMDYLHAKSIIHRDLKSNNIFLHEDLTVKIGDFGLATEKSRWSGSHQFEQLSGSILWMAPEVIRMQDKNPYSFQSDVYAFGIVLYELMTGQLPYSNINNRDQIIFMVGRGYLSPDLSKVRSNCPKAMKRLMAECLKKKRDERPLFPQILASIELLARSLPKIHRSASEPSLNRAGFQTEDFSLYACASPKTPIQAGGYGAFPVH

The IC50 is the concentration that inhibits the measured activity by half. The low end stands for greater potency in that assay, the high end for weaker potency in that assay. With `Cc1ncc(NC(=O)c2ccnc(C(F)(F)F)c2)cc1-c1cnc(-c2c(C)nn(C)c2C)c(C#N)c1` [Example 112, N-(5′-cyano-2-methyl-6′-(1,3,5-trimethyl-1H-pyrazol-4-yl)-[3,3′-bipyridin]-5-yl)-2-(trifluoromethyl) isonicotinamide], the IC50 at b-Raf (V600E) was 17.6 nM; on C-RAF, 3.51 nM.

`Cc1ncc(NC(=O)c2ccnc(C(C)(C)C#N)c2)cc1-c1cnc(NC2CCOC2)c(C#N)c1` (stereo in doubt) [Example 78a, (S)-N-(5′-cyano-2-methyl-6′-((tetrahydrofuran-3-yl)amino)-[3,3′-bipyridin]-5-yl)-2-(2-cyanopropan-2-yl)isonicotinamide]: the IC50 at b-Raf (V600E) was 12.3 nM; at C-RAF, 3.16 nM.

Consider `Cc1ncc(NC(=O)c2ccnc(C(F)F)c2)cc1-c1cnc(C2CCOCC2)c(C#N)c1` [Example 129, N-(5′-cyano-2-methyl-6′-(tetrahydro-2H-pyran-4-yl)-[3,3′-bipyridin]-5-yl)-2-(difluoromethyl) isonicotinamide], for which the values for the IC50 against b-Raf (V600E) and on C-RAF were 23.8 nM and 2.55 nM, respectively.

Turning to `Cc1ncc(NC(=O)c2ccnc(C(C)(C)C#N)c2)cc1-c1cnc(N2CC(C)(O)C2)c(C#N)c1` [Example 30, N-(5′-cyano-6′-(3-hydroxy-3-methylazetidin-1-yl)-2-methyl-[3,3′-bipyridin]-5-yl)-2-(2-cyanopropan-2-yl) isonicotinamide], the IC50 turned out to be 28.8 nM on b-Raf (V600E) and 3.69 nM on C-RAF.

Turning to `Cc1ccc(C(=O)Nc2cccc(C(F)(F)F)c2)cc1-c1cnc(N)c(C#N)c1C` [Example 11, 3-(6-amino-5-cyano-4-methylpyridin-3-yl)-4-methyl-N-(3-(trifluoromethyl)phenyl)benzamide], the figures for the half-maximal inhibitory concentration (IC50) on b-Raf (V600E) and against C-RAF were 9.79 nM and 0.606 nM, respectively.

Take `COCCNc1ncc(-c2cc(NC(=O)c3ccnc(C(C)(C)C#N)c3)ccc2C)cc1C#N` [Example 176, N-(3-(5-cyano-6-((2-methoxyethyl)amino)pyridin-3-yl)-4-methylphenyl)-2-(2-cyanopropan-2-yl)isonicotinamide]: the figures for the half-inhibitory concentration (IC50) against b-Raf (V600E) and at C-RAF were 1.58 nM and 0.398 nM, respectively.

For `Cc1ncc(NC(=O)c2ccnc(C(F)(F)F)c2)cc1-c1cnc(-n2ccccc2=O)c(C#N)c1` [Example 51, N-(3′-cyano-2″- methyl-2-oxo-2H-[1,2′:5′,3″- terpyridin]-5″-yl)-2-(trifluoromethyl) isonicotinamide], the figures for the IC50 against b-Raf (V600E) and against C-RAF were 447 nM and 101 nM, respectively.

As to `Cc1ncc(NC(=O)c2ccnc(C3CC3)c2)cc1-c1cnc(N2CC(C)(O)C2)c(C#N)c1` [Example 188, N-(5′-cyano-6′-(3-hydroxy-3-methylazetidin-1-yl)-2-methyl-[3,3′-bipyridin]-5-yl)-2-cyclopropyl-isonicotinamide], the half-inhibitory concentration (IC50) against b-Raf (V600E) was determined as 9.92 nM; at C-RAF, 1.76 nM.

As to `Cc1ncc(NC(=O)c2ccnc(C(C)(C)C#N)c2)cc1-c1cnc(NC2CCOC2)c(C#N)c1` (stereo in doubt) [Example 78b, (R)-N-(5′-cyano-2-methyl-6′-((tetrahydrofuran-3-yl)amino)-[3,3′-bipyridin]-5-yl)-2-(2-cyanopropan-2-yl)isonicotinamide], the figures for the IC50 against b-Raf (V600E) and on C-RAF were 10.3 nM and 2.41 nM, respectively.

On to `Cc1ccc(NC(=O)c2ccnc(S(C)(=O)=O)c2)cc1-c1cnc(C2CCOCC2)c(C#N)c1` [Example 138, N-(3-(5-cyano-6-(tetrahydro-2H-pyran-4-yl)pyridin-3-yl)-4-methylphenyl)-2-(methylsulfonyl) isonicotinamide], for which the results for the half-inhibitory concentration (IC50) at b-Raf (V600E) and on C-RAF were 4.14 nM and 0.511 nM, respectively.

As for `Cc1ncc(NC(=O)c2cc(C(C)(C)F)ccn2)cc1-c1cnc(N2CCOCC2)c(C#N)c1` [Example 242, N-(5′-cyano-2-methyl-6′-morpholino-[3,3′-bipyridin]-5-yl)-4-(2-fluoropropan-2-yl)picolinamide], the results for the half-inhibitory concentration (IC50) against b-Raf (V600E) and against C-RAF were 3.18 nM and 0.539 nM, respectively.

On to `Cc1ccc(NC(=O)c2cc(C(F)(F)F)ccn2)cc1-c1cnc(N2CC(C)(O)C2)c(C#N)c1` [Example 224, N-(3-(5-cyano-6-(3-hydroxy-3-methylazetidin-1-yl)pyridin-3-yl)-4-methylphenyl)-4-(trifluoromethyl) picolinamide], for which the half-maximal inhibitory concentration (IC50) against b-Raf (V600E) came out at 2 nM; on C-RAF, 0.49 nM.

Take `Cc1ncc(NC(=O)c2ccnc(C(C)(C)C#N)c2)cc1-c1cnc(N2[C@@H]3CC[C@H]2COC3)c(C#N)c1` [Example 91, N-(6′-((1R,5S)-3-oxa-8-azabicyclo[3.2.1]octan-8-yl)-5′-cyano-2-methyl-[3,3′-bipyridin]-5-yl)-2-(2-cyanopropan-2-yl)isonicotinamide]: the IC50 at b-Raf (V600E) was found to be 3.62 nM; against C-RAF, 1.01 nM.

Regarding `CCNc1ncc(-c2cc(NC(=O)c3cccc(C(F)(F)F)c3)ccc2C)cc1C#N` [Example 23, N-(3-(5-cyano-6-(ethylamino)pyridin-3-yl)-4-methylphenyl)-3-(trifluoromethyl) benzamide], the IC50 against b-Raf (V600E) amounted to 1.46 nM; on C-RAF, 0.247 nM.

For `Cc1ccc(NC(=O)c2ccnc(C(F)(F)F)c2)cc1-c1cnc(NC2CC2)c(C#N)c1` [Example 21, N-(3-(5-cyano-6-(cyclopropylamino)pyridin-3-yl)-4-methylphenyl)-2-(trifluoromethyl) isonicotinamide], the IC50 came to 0.575 nM on b-Raf (V600E) and 0.103 nM against C-RAF.

For `Cc1ncc(NC(=O)c2cccc(S(C)(=O)=O)c2)cc1-c1cnc(N(C)C)c(C#N)c1` [Example 270, N-(5′-cyano-6′-(dimethylamino)-2-methyl-[3,3′-bipyridin]-5-yl)-3-(methylsulfonyl) benzamade], the IC50 was 5.41 nM against b-Raf (V600E) and 0.49 nM at C-RAF.

Turning to `Cc1ccc(NC(=O)c2ccnc(C(C)(C)C#N)c2)cc1-c1cnc(N)c(C#N)c1` [Example 2, N-(3-(6-amino-5-cyanopyridin-3-yl)-4-methylphenyl)-2-(2-cyanopropan-2-yl) isonicotinamide], the concentration for half-maximal inhibition (IC50) against b-Raf (V600E) was 3.07 nM; against C-RAF it was 0.661 nM.

Regarding `CCn1cc(C(=O)Nc2cnc(C)c(-c3cnc(N4CCOCC4)c(C#N)c3)c2)cc(C(F)(F)F)c1=O` [Example 135, N-(5′-cyano-2-methyl-6′-morpholino-[3,3′-bipyridin]-5-yl)-1-ethyl-6-oxo-5-(trifluoromethyl)-1,6-dihydropyridine-3-carboxamide], the results for the half-maximal inhibitory concentration (IC50) against b-Raf (V600E) and on C-RAF were 4.79 nM and 0.969 nM, respectively.

With `CCCNc1ncc(-c2cc(NC(=O)c3ccnc(C(F)(F)F)c3)ccc2C)cc1C#N` [Example 40, N-(3-(5-cyano-6-(propylamino)pyridin-3-yl)-4-methylphenyl)-2-(trifluoromethyl) isonicotinamide], the IC50 at b-Raf (V600E) was found to be 1.57 nM; at C-RAF it was 0.233 nM.

Regarding `CNc1ncc(-c2cc(NC(=O)c3ccnc(C(C)(C)C#N)c3)ccc2C)cc1C#N` [Example 6, N-(3-(5-cyano-6-(methylamino)pyridin-3-yl)-4-methylphenyl)-2-(2-cyanopropan-2-yl)isonicotinamide], the IC50 on b-Raf (V600E) came to 2.18 nM; on C-RAF, 0.379 nM.

`Cc1ncc(NC(=O)c2cccc(C(F)(F)F)c2)cc1-c1cnc(OCCO)c(C#N)c1` [Example 99, N-(5′-cyano-6′-(2-hydroxyethoxy)-2-methyl-[3,3′-bipyridin]-5-yl)-3-(trifluoromethyl) benzamide]: the IC50 came to 5.8 nM against b-Raf (V600E) and 0.712 nM against C-RAF.

For the molecule `Cc1ncc(NC(=O)c2ccnc(C(C)(C)C#N)c2)cc1-c1cnc(-n2ccccc2=O)c(C#N)c1` [Example 53, N-(3′-cyano-2″- methyl-2-oxo-2H-[1,2′:5′,3″- terpyridin]-5″-yl)-2 (2-cyanopropan-2-yl)isonicotinamide], the IC50 against b-Raf (V600E) was 285 nM; against C-RAF, 64 nM.

For `Cc1ccc(NC(=O)c2cccc(C(F)(F)F)c2)cc1-c1cc(C#N)c[nH]c1=O` [Example 14, N-(3-(5-cyano-2-oxo-1,2-dihydropyridin-3-yl)-4-methylphenyl)-3-(trifluoromethyl) benzamide], the IC50 against b-Raf (V600E) came to 11.2 nM; against C-RAF, 0.614 nM.

As for `Cc1ccc(NC(=O)c2ccnc(C(F)F)c2)cc1-c1cnc(N2CC(C)(O)C2)c(C#N)c1` [Example 216, N-(3-(5-cyano-6-(3-hydroxy-3-methylazetidin-1-yl)pyridin-3-yl)-4-methylphenyl)-2-(difluoromethyl) isonicotinamide], the 50% inhibitory concentration (IC50) on b-Raf (V600E) worked out at 4.73 nM; against C-RAF, 0.691 nM.

Regarding `Cc1ncc(NC(=O)c2ccnc(C(C)(C)C#N)c2)cc1-c1cnc(N2CCNCC2)c(C#N)c1` [Example 71, N-(5′-cyano-2-methyl-6′-(piperazin-1-yl)-[3,3′-bipyridin]-5-yl)-2-(2-cyanopropan-2-yl)isonicotinamide], the concentration for half-maximal inhibition (IC50) against b-Raf (V600E) turned out to be 4.03 nM; at C-RAF it was 1.97 nM.

Consider `COCCNc1ncc(-c2cc(NC(=O)c3ccnc(C(C)(C)O)c3)ccc2C)cc1C#N` [Example 209, N-(3-(5-cyano-6-((2-methoxyethyl)amino)pyridin-3-yl)-4-methylphenyl)-2-(2-hydroxypropan-2-yl)isonicotinamide], for which the IC50 worked out at 4.17 nM against b-Raf (V600E) and 0.777 nM against C-RAF.
